Data on nine molecules can be found in paper PMC3983388 (Journal of Medicinal Chemistry, 2014).

Series [1] can be described thus: physchem.
The conditions of series [2]: in vivo, po; cited from earlier work.
Setting [3] is: pH 6.8, aqueous solubility pH 6.8.

What is called solubility is the concentration that dissolves in the medium under given conditions. Lower therefore signals little dissolved substance.

≈ marks a conversion by molar mass, not a printed value. Bounds are passed on as bounds.

The molecule `Cc1ccnc(NC(c2ccc([N+](=O)[O-])cc2)c2ccc3cccnc3c2O)c1` (centres unmarked) [Compound 34] had a solubility in series [1] (setting [3]) of 0.0741 µM (≈ 0.0286 µg/mL).

`Cc1ccnc(NC(c2ccc([N+](=O)[O-])cc2)c2ccc3ccc(C)nc3c2O)c1` (centres unmarked) [Compound 35] displayed a solubility in series [1] (setting [3]) of 0.0659 µM (≈ 0.0264 µg/mL).

`COc1ccc(C(Nc2ccccn2)c2ccc3cccnc3c2O)cc1` (centres unmarked) [Compound 36] displayed a solubility in series [1] (setting [3]) of 0.0053 µM (≈ 0.00189 µg/mL).

`COc1ccc(C(Nc2ccccn2)c2ccc3ccc(C)nc3c2O)cc1` (centres unmarked) [Compound 37]: the solubility in series [1] (setting [3]) came to 0.0338 µM (≈ 0.0126 µg/mL).

As to `Oc1c(CNc2ccccn2)ccc2cccnc12` [Compound 56, 7-(((Pyridin-2-yl)amino)methyl)quinolin-8-ol], the solubility in series [1] (setting [3]) came out at 0.111 µM (≈ 0.0279 µg/mL).

Regarding `Oc1c(C(Nc2ccccn2)c2ccccc2)ccc2cccnc12` (centres unmarked) [Compound 57, 7-(Phenyl((pyridin-2-yl)amino)methyl)quinolin-8-ol], the solubility was ~1200 µM (≈ 393 µg/mL) in series [1] (pH 1, aqueous solubility pH 1.0) and 0.078 µM (≈ 0.0255 µg/mL) in series [1] (setting [3]).

For the molecule `Oc1c(I)cc(Cl)c2cccnc12` [Compound 58, 5-chloro-7-iodo-8-hydroxy-quinoline, reference compound], the solubility in series [1] (setting [3]) is < 0.001 µM. In addition, in series [2], the serum levels was 13 to 25 µM.

`Oc1c(Cl)cc(Cl)c2cccnc12` [Compound 60, 5,7-dichloro-8-hydroxy-quinoline, reference compound]: the solubility in series [1] (setting [3]) turned out to be 0.5 µM (≈ 0.107 µg/mL).

`Cc1ccc2c(Cl)cc(Cl)c(O)c2n1` [Compound 61, 5,7-dichloro-2-methyl-8-hydroxy-quinoline] came in with a solubility in series [1] (setting [3]) of 0.394 µM (≈ 0.0899 µg/mL).
